Measurements: patent publication US9889093B2, “Application of andrographolide in the preparation of a pharmaceutical for treatment of inflammatory bowel disease, andrographolide enteric targeting micropellet, and method for preparation thereof” (TASLY PHARMACEUTICAL GROUP CO., LTD., priority 2013, dated 2018)
Marks after values point to notes of the source that are not given here.

How the values were obtained:
Assay type in all cases: in vivo
TNBS-induced UC rats = experiment: TNBS-induced UC rat model, different administration routes
Excerpt: 4 Dose Designing and Grouping • 4.1 Grouping: quarantine-qualified 84 rats were all used for making UC model. The successful rats were randomly divided into 6 groups: the model control group, the positive control group, the andrographolide low-dose intragastric group, the andrographolide high-dose intragastric group, the andrographolide low-dose intracolonical group and the andrographolide high-dose intracolonical group, 14 rats per group. • 4.2 Dose: the same doses were adopted in both intragastric and intracolonical groups. Animals were not treated in the model control group, the positive control group (mesalazine enteric tablet, 420 mg·kg^−1·d^−1), the andrographolide low-dose intragastric group (30 mg·kg^−1·d^−1), the andrographolide high-dose intragastric group (90 mg·kg^−1·d^−1), the andrographolide low-dose intracolonical group (30 mg·kg^−1·d^−1) and the andrographolide high-dose intracolonical group (90 mg·kg^−1·d^−1).
5. Method • 5.1 Method of making UC model: the rats were anesthetized. 2 mm-diameter latex tube was gently inserted into the position about 8 cm inside the body of the rats through anus, and TNBS in 50% ethanol solution (TNBS 125 mg/kg) was injected into intestinal lumen with an injector by one time, 0.5 ml/rat. The tail of the rat was lifted up for 30 s to make the model making agent (i.e., TNBS) fully infiltrate into the intestinal lumen of the rats. • 5.2 Method of administration: the same dose (1 mL/100 g) was adopted in both intragastric and intracolonical administration, once daily for consecutive 5 days. • 5.3 Method for sampling in experiment: 2 hours after the last administration, the rats were killed by cervical vertebra dislocation and abdomen was opened to separate the colon. Along mesenteric side, the intestinal lumen was cut and rinsed with 4° C. normal saline and spread on a plastic plate. • 5.4 Scoring method for colon gross morphological injury was referred to scoring method for mucosal injury (Bjelkengren G, Aronsen K F, Augustsson N E, etc. Radioprotective effect of local administration of lysine vasopressin and triglycyl lysine vasopressin on the rectal mucosa in rats[J]. Acta Oncol, 1995, 34(4):487-92) to record the mucosal injury score: dotted line blooding and small red spots (<1 mm): 1 score, piece blooding and big red spots (=1 mm): 3 score; and erosion and ulcer: 5 score.
(§1) Data were expressed as mean+standard deviation (x±S). All numerical variables were analyzed with SPSS13.0 software by one-way ANOVA. T-test analysis was used for inter-group comparison.

DSS-induced UC mice = experiment: DSS-induced UC mouse model, disease active index; conditions: mesalazine enteric tablet 227.5 mg/kg/d
Excerpt: 4 Dose Designing and Grouping • 4.1 Grouping: quarantine-qualified 84 mice were randomly divided into 6 groups: the model control group, the positive control group, the tested drug low-dose intragastric group, the tested drug high-dose intragastric group, the tested drug low-dose intracolonical group and the tested drug high-dose intracolonical group, 14 mice per group. All animals drank 5% DSS solution daily for consecutive 14 days to establish UC model. Animals were administrated with the drug for treatment on the 2nd day after being given 5% DSS drinking water. • 4.2 Dose: in this study, dose of administration of the mice in all groups was designed on the basis of client's requirements, and the same doses were adopted in both intragastric and intracolonical groups. Animals were not treated in the model control group, the positive control group (mesalazine enteric tablet, 227.5 mg·kg^−1·d^−1), the andrographolide low-dose intragastric group (60 mg·kg^1·d^−1), the andrographolide high-dose intragastric group (180 mg·kg^−1·d^−1), the andrographolide low-dose intracolonical group (60 mg·kg^−1·d^−1) and the andrographolide high-dose intracolonical group (180 mg·kg^−1·d^−1).
5 Method • 5.1 Method of making UC model: all animals drank 5% DSS solution daily for consecutive 14 days. • 5.2 Method of administration: on the 2nd day after modeling, the mice were treated intragastrically or intracolonically with the drug at 1 mL/100 g once a day for consecutive 14 days. • 5.3 Method for sampling in experiment: 2 hours after the last administration, the mice were killed by cervical vertebra dislocation and abdomen was opened to separate the colon. Along mesenteric side, the intestinal lumen was cut and rinsed with 4° C. normal saline and spread on a plastic plate. • 5.4 Method for evaluating disease active index (DAI): the disease active index was assessed at the 7th and 14th day after administration. The method was presented together with the following three parameters: the body weight loss percentages (unchanged BW: 0 score, 1˜5: 1 score, 5˜10: 2 score, 10˜15: 3 score, more than 15: 4 score), stool viscosity (normal stool: 0 score, loosen stool: 2 score, diarrhea: 4 score) and blood stool (normal stool: 0 score, occult blood stool: 2 score and positive blood stool: 4 score). Total score of three parameters was divided by 3 to give the DAI, namely DAI=(BW index score+stool character score+stool blood score)/3.
6 Observation Indices • 6.1 Observation: the general clinical symptoms in the mice were observed daily from the beginning to the end of the experiment, and the stool, mental status and death status were recorded. • 6.2 Body weight: BW was recorded weekly from the beginning to the end of the experiment. • 6.3 Calculation of DAI: DAI was calculated on the 7th and 14th day after administration so as to assess disease activity. • 6.4 The colon mucosal tissue 8˜10 cm away from the anus was sampled, embedded with paraffin and stained with routine HE. Colon mucosal injury was observed by a microscope and histological injury was scored based on the following indices: ulcer inflammatory granuloma, fibrosis and pathological degree.
as §1

[1] = test system: TNBS-induced colitis mice; experiment: TNBS-induced UC (colitis) mouse model
Procedure: 5% (w/v) TNBS solution was diluted with double-distilled water and mixed with 50% (v/v) ethanol in equal volume to have 1.5% (w/v) TNBS solution. In the model control group, the mice were anesthetized with 1 wt % pentobarbital solution at a dose of 0.05 ml/10 g body weight. After being anesthetized, the mice were administrated with 1.5% (w/v) TNBS solution at a dose of 0.1 ml/mouse by gently inserting stomach perfusion device to about 3 cm depth via anus and arriving at the colon, and the IBD was induced. In the saline group, the saline was gently injected into the colon at a dose of 0.1 ml/mouse. In the normal control group, 50% (v/v) ethanol was gently injected into the colon at a dose of 0.1 ml mouse.
After one week adaptive feeding, all animals were randomly divided into 5 groups according to body weight, 10 mice in one group: the normal control group, the model control group, the andrographolide low-dose group (20 mg/kg/d), the andrographolide high-dose group (40 mg/kg/d) and the positive control group (Sulfasalazine group, 300 mg/kg/d). Two hours after making model, the animals in each treating groups were orally administrated twice daily with the andrographolide and once daily in the positive control group. After successive administration for 7 days, the abdomen was opened 24 hours after the last administration to observe adhesion degree between the colon and other organs. The colon was separated and weighed.
1. Body weight: after making model, body weight was measured every day to observe the change in the animals.
2. Evaluation of inflammation: the abdomen was opened 24 hours after the last administration to observe adhesion degree between the colon and other organs. Every segment of the colon was taken out and weighed to calculate the percentage of the colon weight to body weight, as the colon index. The formula was presented as follows: Decrease rate of colon specific weight=(colon index of the model control group−colon index of the treatment group)/colon index of the model control group×100%
3. Histopathological examination: a part of the colon was taken to prepare the pathological section, and the standard for score was as follows: • 0 score, no inflammatory symptoms; • 1 score, low-grade inflammation with no structure change; • 2 score, low-grade leukocyte infiltration; • 3 score, high-grade leukocyte infiltration, high vascular density, crypt extension, thickened colon wall and superficial ulcer • 4 score, high-grade leukocyte infiltrating exceeding to mucous layer, crypt extension, decrease of goblet cell, high vascular density, thickened colon wall and extensive ulcer
SPSS11.5 software was used for analysis and the data were expressed as x±S. Variance analysis was used for comparison of significant difference among groups.

[2] = test system: zebra fish Crohn's disease model; experiment: Zebra fish Crohn's disease model (TNBS), efficacy; conditions: intestinal tissue; prednisolone 10 μM; x ± SE, n = 10
[3] = mesalazine enteric tablet 420 mg/kg, once daily 5 days
[4] = sulfasalazine 300 mg/kg/d, once daily, 7 days

## Nc1ccc(O)c(C(=O)O)c1 [Positive control group, mesalazine, reference compound]
TNBS-induced UC rats; [3]
  Gross morphological injury score: 3.16 ± 1.97
  Ulcer ratio: 35.45* %
TNBS-induced UC rats; positive control group 420 mg/kg
  Formless watery stool symptoms, course: most of watery stool symptoms disappeared in the rats on the 5th˜6th days
DSS-induced UC mice
  DAI on the 7th day: 1.31 ± 0.14
  DAI on the 14th day: 1.10 ± 0.55

## O=C(O)c1cc(/N=N/c2ccc(S(=O)(=O)Nc3ccccn3)cc2)ccc1O [Sulfasalazine, reference compound]
[1]; FIG. 1, treated groups
  Body weight increase compared with the model control group: increased faster than that in the model control group
[1]; histopathological score 0-4, sulfasalazine 300 mg/kg/d, 7 days
  Colon scores: 2.8*
[1]; percentage of colon weight to body weight, sulfasalazine 300 mg/kg/d, 7 days
  Colon indices: 1.75 ± 0.43
[1]; [4]
  Body weight: 19.13 ± 0.99 g
  Colon weight: 0.33 ± 0.06 g
[1]; treated groups, after 7 days
  Intestinal elasticity compared with the model control group: higher than that in the model control group
[1]; vs model control group, sulfasalazine 300 mg/kg/d, 7 days
  Decrease rate of colon specific weight: 47.87%

## C[C@]12C=CC(=O)C=C1CC[C@@H]1[C@@H]2[C@@H](O)C[C@@]2(C)[C@H]1CC[C@]2(O)C(=O)CO [prednisolone, reference compound]
[2]
  Number of Neutrophil: 14 ± 0.60
